Laboratory results: publication PMC12406652 (Antimicrobial Agents and Chemotherapy, 2025)
Marks after values point to notes of the source that are not given here.

How the values were obtained:
[1] = Urinary pharmacokinetics on Day 10 after multiple doses of LED-E q8h; type: in vivo, human; settings: urine; for CL renal: oral; for CL renal / Ae0–8 / Ae0–48: geometric mean (geometric CV %); for Ae0–8 / Ae0–48: after last dose (Day 10)
Method: Quantitation used separate weighted 1 /x^2 linear least-squares regression analyses generated from calibration standards. Exploratory screening for metabolites was performed for some samples. […] Plasma pharmacokinetic parameters were calculated using noncompartmental analysis of the plasma and urine concentration-time data. […] AUCinf and Cmax were natural log-transformed before analysis, using a linear mixed effects model. […] In both studies, plasma pharmacokinetic parameters were calculated using WinNonlin (Certara; Radnor, PA), and urine pharmacokinetic parameters were calculated using SAS (SAS Institute; Cary, NC).

[2] = Plasma pharmacokinetics after single ascending doses of LED-E (VNRX-7145-101 Part 1); type: in vivo; settings: human, oral; for AUC(0-inf) / Cmax / half-life: geometric mean (CV %); for half-life: read-out: t1/2 (converted); for Tmax: median (range)
Method: (§1) Quantitation used separate weighted 1 /x^2 linear least-squares regression analyses generated from calibration standards. Exploratory screening for metabolites was performed for some samples. […] Single-dose plasma pharmacokinetic parameters were determined in Part 1, and both single-dose (Day 1) and multiple-dose (Day 12) parameters were determined in Part 2. […] Dose proportionality was analyzed using a power model in which pharmacokinetic exposure parameters and dose were converted to the natural log and linear regression results were reported, with the slope as the power estimate ([15]). […] In Part 2, achievement of steady-state concentrations was assessed using Tukey’s multiple comparison test for pre-dose and all dosing days (Days 2 to 10) for each dose level separately. In both studies, plasma pharmacokinetic parameters were calculated using WinNonlin (Certara; Radnor, PA), and urine pharmacokinetic parameters were calculated using SAS (SAS Institute; Cary, NC).

[3] = Urinary pharmacokinetics after single doses of LED-E; type: in vivo, human; settings: urine, geometric mean (geometric CV %); for CL renal: human, oral
Method: Plasma and urine pharmacokinetics samples were assayed for LED-E, LED, and CTB, as appropriate using validated bioanalytical methods. […] Quantitation used separate weighted 1 /x^2 linear least-squares regression analyses generated from calibration standards. Exploratory screening for metabolites was performed for some samples. In both studies, plasma pharmacokinetic parameters were calculated using WinNonlin (Certara; Radnor, PA), and urine pharmacokinetic parameters were calculated using SAS (SAS Institute; Cary, NC).

[4] = Plasma pharmacokinetics on Day 10 after multiple doses of CTB + LED-E q8h (VNRX-7145-102 Part 3); settings: human, oral; for AUC: AUCtau; for AUC / Cmax / half-life: geometric mean (CV %)
[5] = Plasma pharmacokinetics on Day 10 after multiple doses of LED-E q8h (VNRX-7145-101 Part 2, VNRX-7145-102 Part 2); type: in vivo, human; settings: for AUC / Cmax / Tmax / half-life: human, oral, plasma; for Tmax: median (range)
Method: as §1, with “Single-dose plasma pharmacokinetic parameters were determined in Part 1, and both single-dose (Day 1) and multiple-dose (Day 12) parameters were determined in Part 2.” left out, “separately. […] Plasma pharmacokinetic parameters were calculated using noncompartmental analysis of the plasma and urine concentration-time data. […] AUCinf and Cmax were natural log-transformed before analysis, using a linear mixed effects model. […]” for “separately.”

[6] = Urinary recovery on Day 10 after multiple doses of CTB + LED-E q8h (VNRX-7145-102 Part 3); settings: urine, geometric mean (geometric CV %); for CL renal: human, oral, CLr
[7] = multiple doses LED-E 150 mg q8h
[8] = multiple doses LED-E 300 mg q8h
[9] = multiple doses LED-E 500 mg q8h
[10] = 1000 mg, single dose LED-E 1,000 mg
[11] = Day 10, CTB 400 mg + LED-E 300 mg q8h
[12] = Day 10, CTB 400 mg + LED-E 500 mg q8h
[13] = Day 10, LED-E 150 mg q8h, geometric mean (CV %)
[14] = Day 10, LED-E 300 mg q8h, geometric mean (CV %)
[15] = Day 10, LED-E 500 mg q8h, geometric mean (CV %)

CL renal ([1]; human, multiple doses LED-E 75 mg q8h): 44.2 mL/min
CL renal ([1]; human, multiple doses LED-E 150 mg q8h): 51.8 mL/min
CL renal ([1]; human, multiple doses LED-E 300 mg q8h): 51.5 mL/min
CL renal ([1]; human, multiple doses LED-E 500 mg q8h): 82 mL/min
bioavailability ([1]; human, after oral dosing of LED-E, inferred from urinary excretion): ≥ 68%
Ae0–8 ([1]; multiple doses LED-E 75 mg q8h): 43.1 (6.95) mg
Ae0–48 ([1]; multiple doses LED-E 75 mg q8h): 51.6 (7.80) mg
Ae0–48 ([1]; multiple doses LED-E 75 mg q8h, listed as LED): 51.6 mg
Ae0–8 [1, 7]: 73.1 (10.0) mg
Ae0–48 [1, 7]: 86.6 (11.1) mg
Ae0–8 [1, 8]: 137 (34.2) mg
Ae0–48 [1, 8]: 166 (27.8) mg
Ae0–8 [1, 9]: 283 (7.8) mg
Ae0–48 [1, 9]: 345 (11.2) mg
Ae0–48 ([1]; multiple doses LED-E 500 mg q8h, listed as LED): 345 mg
AUC(0-inf) [2, 10]: 114000 ng·h/mL
Cmax [2, 10]: 26500 ng/mL
half-life [2, 10]: 11.3 h
Tmax [2, 10]: 2 h
AUC(0-inf) ([2]; single dose LED-E 100 mg): 15400 ng·h/mL
Cmax ([2]; single dose LED-E 100 mg): 4010 ng/mL
half-life ([2]; single dose LED-E 100 mg): 5.53 h
AUC(0-inf) ([2]; single dose LED-E 200 mg): 26200 ng·h/mL
Cmax ([2]; single dose LED-E 200 mg): 5970 ng/mL
half-life ([2]; single dose LED-E 200 mg): 6.1 h
AUC(0-inf) ([2]; single dose LED-E 300 mg): 33100 ng·h/mL
Cmax ([2]; single dose LED-E 300 mg): 7570 ng/mL
half-life ([2]; single dose LED-E 300 mg): 7.48 h
AUC(0-inf) ([2]; single dose LED-E 500 mg): 69300 ng·h/mL
Cmax ([2]; single dose LED-E 500 mg): 16800 ng/mL
half-life ([2]; single dose LED-E 500 mg): 11.3 h
AUC(0-inf) ([2]; single dose LED-E 800 mg): 125000 ng·h/mL
Cmax ([2]; single dose LED-E 800 mg): 24000 ng/mL
half-life ([2]; single dose LED-E 800 mg): 8.59 h
Tmax ([2]; single dose LED-E 800 mg): 2 h
CL renal ([3]; single dose LED-E 300 mg): 66.3 mL/min
CL renal ([3]; single dose LED-E 500 mg): 53.3 mL/min
CL renal ([3]; single dose LED-E 800 mg): 58.7 mL/min
CL renal ([3]; single dose LED-E 1000 mg): 75.5 mL/min
Ae0–8 ([3]; single dose LED-E 300 mg): 113 (23.3) mg
Ae0–48 ([3]; single dose LED-E 300 mg): 131 (20.3) mg
Ae0–8 ([3]; single dose LED-E 500 mg): 190 (14.1) mg
Ae0–48 ([3]; single dose LED-E 500 mg): 220 (12.2) mg
Ae0–8 ([3]; single dose LED-E 800 mg): 364 (6.14) mg
Ae0–48 ([3]; single dose LED-E 800 mg): 438 (3.3) mg
Ae0–8 ([3]; single dose LED-E 1000 mg): 459 (16.6) mg
Ae0–48 ([3]; single dose LED-E 1000 mg): 515 (16.9) mg
AUC [4, 11]: 33300 ng·h/mL
AUC [4, 12]: 62200 ng·h/mL
Cmax [4, 11]: 8470 ng/mL
Cmax [4, 12]: 16200 ng/mL
Tmax ([4]; Tmax, Day 10, CTB 400 mg + LED-E 300 mg q8h, median (range)): 1 h
half-life ([4]; t1/2, Day 10, CTB 400 mg + LED-E 300 mg q8h): 11.4 h
half-life ([4]; t1/2, Day 10, CTB 400 mg + LED-E 500 mg q8h): 12.3 h
Steady-state plasma concentrations reached by ([5]; LED-E q8h dosing): ≤ 3 days
AUC ([5]; Day 10, LED-E 75 mg q8h, 0 to 8 h post-dose, geometric mean (CV %)): 13900 ng·h/mL
Cmax ([5]; Day 10, LED-E 75 mg q8h, geometric mean (CV %)): 3690 ng/mL
Tmax ([5]; Day 10, LED-E 75 mg q8h): 1 h
AUC [5, 13]: 20800 ng·h/mL
Cmax [5, 13]: 5870 ng/mL
Tmax ([5]; Day 10, LED-E 150 mg q8h): 0.75 h
AUC [5, 14]: 40900 ng·h/mL
Cmax [5, 14]: 11600 ng/mL
Tmax ([5]; Day 10, LED-E 300 mg q8h): 1.13 h
AUC [5, 15]: 70000 ng·h/mL
Cmax [5, 15]: 15800 ng/mL
half-life ([5]; 75 mg, Day 10, LED-E 75 mg q8h, geometric mean (CV %), read-out: t1/2 (converted)): 9.3 h
half-life ([5]; 150 mg, Day 10, LED-E 150 mg q8h, geometric mean (CV %), read-out: t1/2 (converted)): 11.4 h
half-life ([5]; 300 mg, Day 10, LED-E 300 mg q8h, geometric mean (CV %), read-out: t1/2 (converted)): 11.3 h
half-life ([5]; 500 mg, Day 10, LED-E 500 mg q8h, geometric mean (CV %), read-out: t1/2 (converted)): 12.5 h
half-life ([5]; Day 10, after 10 days of q8h dosing, across dose groups, read-out: Terminal half-life (t1/2) in plasma): 11 to 12 h
Ae0–8 [6, 11]: 156 (11.3) mg
Ae0–8 [6, 12]: 243 (22.8)^d mg
CL renal [6, 11]: 85.8 mL/min
CL renal [6, 12]: 74.8 mL/min
SMILES: CCC(=O)N[C@H]1Cc2cccc(C(=O)O)c2OB1O [Ledaborbactam, ledaborbactam]
